# Test results: US5608075A (priority 1995, dated 1997)
# Counter-ions that a name gives are not always drawn.
# Tests used:
# [1] = test system: blood pressure in conscious dogs; test: Hypotensive effects in conscious dogs before and after furosemide; type: in vivo, dog; conditions: cumulative iv 0.3 to 3 mg/kg
# Procedure: (§1) The hypotensive effects of 2-butyl-4-chloro-1-[2'-(1H-tetrazol-5-yl)biphenyl-4-yl)methyl]-5-hydroxymethylimidazole sodium salt were compared before and after furosemide administration to conscious dogs. […] Plasma renin activity (PRA) in these animals was 1.5±0.5 ng AI/ml/hr. Four days later, furosemide was given to three of these dogs at 10 mg/kg im at 18 and 2 hours before the experiment and increased PRA to 19.9±7.2 ng AI/ml/hr. […] Thus a combined therapy of these two classes of drugs will be likely to increase the response rate to therapy among hypertensive patients.
# [2] = test system: pressor response to AII; test: Inhibition of the pressor response to AII in conscious dogs; type: in vivo, dog
# Procedure: as §1
# [3] = Solubility studies in nonaqueous solvents at 25° C.; type: physicochemical; conditions: overnight equilibration; for solubility: organic solvent or mixture, isopropyl acetate
# [4] = type: physicochemical; conditions: 25° C., overnight equilibration
# Source text: From these facts it was concluded that the minor endotherm corresponds to an enantiotropic polymorphic transition. The major endotherm is the melting of the high-temperature form. The low-temperature stable polymorph (up to the transition temperature) is designated Form I and the high-temperature stable polymorph is designated Form II. […] Form I is the solid modification consistently obtained by solvent isolation. This was confirmed by recrystallizing the drug substance under varying conditions and analyzing by XRPD. Form II has been obtained only from DSC or related high temperature experiments.
# [5] = test system: blood pressure in renal hypertensive rats; test: Antihypertensive effects in renal hypertensive rats (left renal artery ligation); type: in vivo, rat
# Procedure: This procedure increases blood pressure by increasing renin production with consequent elevation of AII levels. Compounds are administered orally at 100 mg/kg and/or intravenously via a cannula in the jugular vein at 10 mg/kg. Arterial blood pressure is continuously measured directly through a carotid artery cannula and recorded using a pressure transducer and a polygraph. Blood pressure levels after treatment are compared to pretreatment levels to determine the antihypertensive effects of the compounds (See Table 6).
# [6] = test system: AT1 receptor; conditions: cited from earlier work
# [7] = test system: AII; conditions: cited from earlier work
# [8] = test system: arterial pressure; conditions: cited from earlier work
# [9] = test system: renal vasoconstrictor effect of indomethacin and meclofenamate; conditions: dogs; cited from earlier work
# [10] = test system: renal vasoconstrictor effect of indomethacin; conditions: dogs with non-hypotensive hemorrhage; cited from earlier work
# [11] = test system: plasma renin; test: Plasma renin activity (PRA) in conscious dogs; type: in vivo, dog; conditions: furosemide 10 mg/kg im at 18 and 2 hours before the experiment, three dogs; PRA before furosemide 1.5±0.5
# Procedure: as §1
smiles,measurement,setting,value
CCCCc1nc(Cl)c(CO)n1Cc1ccc(-c2ccccc2-c2nn[nH]n2)cc1 [2-butyl-4-chloro-1-[2'-(1H-tetrazol-5-yl)biphenyl-4-yl)methyl]-5-hydroxymethylimidazole sodium salt],decrease in blood pressure after furosemide,[1]; furosemide-treated dogs,significant decrease in blood pressure in a dose-dependent manner
same,blood pressure lowering in normotensive conscious dogs,"[1]; n=4, before furosemide",did not lower blood pressure
same,inhibition of the pressor response to AII,"[2]; cumulative iv 0.3 to 3 mg/kg, AII 0.1 μg/kg iv, 10 min post dose, before furosemide",effective in inhibiting the pressor response to AII
same,inhibition of the pressor response to AII after furosemide,"[2]; cumulative iv, furosemide-treated dogs",inhibited the pressor response to AII at the two higher doses
"CCCCc1nc(Cl)c(CO)n1Cc1ccc(-c2ccccc2-c2nnn[nH]2)cc1.[K] [Form I, 2-n-butyl-4-chloro-1-[(2'-(tetrazol-5-yl)-1,1'-biphenyl-4-yl)-methyl]-1H-imidazole-5-methanol potassium salt]",solubility in ethyl acetate,[3]; ethyl acetate,~ 0.3 mg/g
same,solubility in isopropanol,[3]; isopropanol,~ 35 mg/g
same,solubility in methyl ethyl ketone,[3]; methyl ethyl ketone,~ 1 mg/g
same,solubility,[3],18 µg/mL
same,polymorph conversion in isopropyl acetate,[4],no conversion of either Form was observed
"CCCCc1nc(Cl)c(CO)n1Cc1ccc(-c2ccccc2-c2nn[nH]n2)cc1 [Form II, 2-n-butyl-4-chloro-1-[(2'-(tetrazol-5-yl)-1,1'-biphenyl]-1H-imidazole-5-methanolpotassium salt]",solubility,[3],41 µg/mL
same,"polymorph conversion in isopropanol, methyl ethyl ketone and ethyl acetate",[4],converts to Form I after overnight equilibration
same,polymorph conversion in isopropyl acetate,[4],no conversion of either Form was observed
"CCCCc1nc(Cl)c(CO)n1Cc1ccc(-c2ccccc2-c2nn[nH]n2)cc1 [Losartan, 2-butyl-4-chloro-1-[(2'-tetrazol-5-yl)-biphenyl-4-yl]methyl]-5-(hydroxymethyl)imidazole potassium salt]","Antihypertensive Effects in Renal Hypertensive Rats, Intravenous Activity","[5]; intravenous, 10 mg/kg",+ (Significant decrease in blood pressure at 10 mg/kg or less)
same,"Antihypertensive Effects in Renal Hypertensive Rats, Oral Activity","[5]; oral, 100 mg/kg",+ (Significant decrease in blood pressure at 100 mg/kg or less)
same,"AII antagonist activity, oral",[6],orally active AII antagonists
"CNCC(=O)N[C@@H](CCCN=C(N)N)C(=O)N[C@H](C(=O)N[C@@H](Cc1ccc(O)cc1)C(=O)N[C@H](C(=O)N[C@@H](Cc1cnc[nH]1)C(=O)N1CCC[C@H]1C(=O)N[C@@H](C)C(=O)O)C(C)C)C(C)C [Saralasin, [Sar^1, Ala^8] AII]",block of effects of AII on the blood pressure,[7]; pithed rats,blocks the effects of AII on the blood pressure of pithed rats
same,competitive antagonism of the actions of AII,"[7]; rat, in vivo",one of the most potent competitive antagonists of the actions of AII
same,oral effectiveness,[8]; oral doses,oral doses being ineffective
same,duration of pharmacological effects,[8]; parenteral administration,relatively short-lasting
same,lowering of arterial pressure,[8]; when the (elevated) pressure is dependent on circulating AII,lower arterial pressure in mammals and man
same,pressor effects (agonistic character),[8]; when the pressure is not sustained by AII,generally elicits pressor effects when the pressure is not sustained by AII
same,inhibition of renal vasoconstrictor effect of indomethacin and meclofenamate,[9],inhibit the renal vasoconstrictor effect of indomethacin and meclofenamate in dogs
C[C@H](CS)C(=O)N1CCC[C@H]1C(=O)O [captopril],reversal of renal vasoconstrictor effect of indomethacin,[10],reverse the renal vasoconstrictor effect of indomethacin in dogs
NS(=O)(=O)c1cc(C(=O)O)c(NCc2ccco2)cc1Cl [furosemide],plasma renin activity (PRA) after furosemide,[11],19.9±7.2 ng AI/ml/hr
